Assays:
[1] = system: Caco-2 cells; assay: MTT cytotoxicity assay on Caco-2 cells; assay type: cell-based, Human; details: Homo sapiens, 24 h, mean ± SD, n = 4, read-out: Inhibition Rate %
Method: Human intestinal Caco-2 cells (ATCC, Rockville, MD, USA) were incubated at 37 °C in a humidified atmosphere of 5% CO2 in air. The cells were cultured in Dulbecco’s […] medium (DMEM) with 10% heat-inactivated fetal bovine serum, 1% non-essential amino acids, 1% L-glutamine, 1% penicillin/streptomycin (Gibco Life Technologies, Grand Island, NY, USA). The cells were sub-cultured at confluence by 0.05% trypsin-0.5 mM EDTA treatment before they were applied in the experiment.
A MTT test was conducted to determine the possible toxicity of UA and its derivatives to Caco-2 cells. Briefly, cells were seeded at a density of 1 × 10^4 cells/mL in a 96-well plate and incubated for 24 h. The next day, cells were incubated with vehicle (0.1% DMSO) and compounds at 100, 50, 25, 12.5 μmol/L for 24 h, and then 5 g/L MTT solution (20 μL) was added for 4 h. Absorbance at 570 nm was measured using a Multimodel Plate Reader (Infinite 200, Tecan, Mannedorf, Switzerland).

[2] = system: SGLT-1; assay: Western blot of SGLT-1 protein expression in Caco-2 cells; assay type: cell-based, Human; details: 100 μM, 6 h
Method: Caco-2 cells were cultured on 6-well plates at a density of 1 × 10^6 cells/well for 13 days. The cells were placed in serum-free medium for 24 h prior to the treatment. Then UA and its derivatives (100 μM) were added, after 6 h incubation, the cells were immediately washed three times with ice-cold PBS and lysed in 200 μL lysis buffer. Cells were allowed to lyse on ice, and then scraped, vortexed, sonicated and stored at −80 °C for further analysis. Protein concentrations were determined as described and cell lysate was subjected to western blot analysis. Briefly, proteins with same amount were denatured in sample buffer, separated on 8% SDS-PAGE gel, and transferred onto a polyvinylidene diflouride membrane. […] Membranes were then incubated overnight at 4 °C in blocking buffer with antibodies for GLUT-2, SGLT-1 and β-actin (EMD, Millipore, Billerica, MA, USA). Membranes were washed with TBST and incubated 1 h with appropriate secondary antibodies. Revelation was performed by using the enhanced chemiluminescence reagent and blue-light sensitive film. Densitometric analysis of films was performed with a Hewlett-Packard scanner equipped with a transparent adaptor and UN-SCAN-IT software.

[3] = system: STZ-induced diabetic rats; assay: Fasting blood glucose in STZ-induced diabetic rats, 4 weeks treatment; assay type: in vivo, rat; details: for Fasting Blood Glucose Level, Week 0: Week 0 (before treatment); for Fasting Blood Glucose Level, Week 0 / Fasting Blood Glucose Level, Week 1 / Fasting Blood Glucose Level, Week 2 / Fasting Blood Glucose Level, Week 3 / Fasting Blood Glucose Level, Week 4: compounds 100 mg/kg, n = 6; for Fasting Blood Glucose Level, Week 1 / Fasting Blood Glucose Level, Week 2 / Fasting Blood Glucose Level, Week 3 / Fasting Blood Glucose Level, Week 4: glibenclamide 10 mg/kg daily
Method: Adult male albino rats of Sprague-Dawley rats (180–220 g) were obtained from the Guangdong Medical Lab Animal Center, and maintained under standard laboratory conditions in a temperature (25–30 °C) and light-controlled (12-h light/dark cycle) room with 35%–60% humidity. The animals were acclimatized for 10 days before the experiments and provided with rodent chow and water ad libitum. The investigation was conducted in accordance with the Guide for the Care and Use of Laboratory Animals and approved by the institutional Animal Ethics Committee.
(§1) Diabetes was induced by a single intraperitoneal injection of streptozotocin (Sigma-Aldrich, St. Louis, MO, USA) at a dose of 65 mg/kg body weight. STZ was dissolved in 0.1 M cold citrate buffer, pH 4.5. Control group were injected with citrate buffer alone. After 7 days for the development of diabetes, plasma glucose levels were determined of each rat. Rats with fasting blood glucose (FBG) range of above 16.7 mmol/L were considered as DM rats and were used for further study.
(§2) According to the body weight and plasma glucose levels the rats were divided randomly into seven groups with six rats each and treated as follows: • Group I: Normal rats treated with 0.5% CMC-Na (2 mL/200 g body weight). • Group II: Diabetic rats treated with 0.5% CMC-Na. • Group III: Diabetic rats treated with 10 mg/kg of glibenclamide. • Group IV: Diabetic rats treated with 100 mg/kg of compound 1 (UA). • Group V: Diabetic rats treated with 100 mg/kg of compound 10. • Group VI: Diabetic rats treated with 100 mg/kg of compound 11. • Group VII: Diabetic rats treated with 100 mg/kg of compound 12.
(§3) The treatment was continued daily for 28 days. Blood glucose levels and body weight were measured every week to ascertain the status of diabetes. After 4 weeks of treatment, the animals were fasted for 12 h and sacrificed by cervical dislocation under mild anaesthetization, blood was collected into heparinized tubes and centrifuged at 2,000 rpm for 10 min. Livers and kidneys were removed, washed and homogenized in ice-cold normal saline. This homogenates were centrifuged at 3,000 rpm for 10 min at 4 °C, and the supernatants were collected for the estimate of antioxidant markers.
(§4) Fasting blood glucose levels were estimated on days 0, 7, 14, 28 with the single touch glucometer (Life Scan, Johnson & Johnson Company, New Brunswick, NJ, USA). Serum insulin level was measured by use of a commercial immunoassay kit by enzyme linked immunosorbent assay (Uscn. Life Science Inc., Wuhan, China). Serum total protein, albumin, triglycerides (TG), total cholesterol (TC), high-density lipoprotein cholesterol (HDL-C), and low-density lipoprotein cholesterol (LDL-C) were measured with an automatic biochemical analyzer (Sinnowa D240, Nanjing, China).

[4] = system: STZ-induced diabetic rats; assay: Serum biochemical parameters (insulin, total protein, albumin) in STZ-induced diabetic rats; assay type: in vivo, rat; details: 4 weeks, compounds 100 mg/kg, glibenclamide 10 mg/kg
Method: as §1, §2, §3, §4

[5] = system: STZ-induced diabetic rats; assay: Body weight and daily food intake of STZ-induced diabetic rats; assay type: in vivo, rat; details: compounds 100 mg/kg, glibenclamide 10 mg/kg, oral
Method: as §1, §2, §3

[6] = system: STZ-induced diabetic rats; assay: Oxidative stress markers (GSH, SOD, MDA) in liver and kidney of STZ-induced diabetic rats; assay type: in vivo, rat; details: 4 weeks
Method: as §1, §2, §3
The tissue homogenates of liver and kidney were used for the estimate of antioxidant markers. Glutathione (GSH) level was measured with 5, 5'-dithiobis-(2-nitrobenzoic acid) (DTNB) as described by Sedlak and Lindsay. Superoxide dismutase (SOD) activity was assessed according to the method of Sinha. Malondialdehyde (MDA) activity was estimated with the thiobarbituric acid method.

[7] = system: STZ-induced diabetic rats; assay: Serum lipid profile (TG, TC, LDL-C, HDL-C) in STZ-induced diabetic rats; assay type: in vivo, rat; details: 4 weeks, compounds 100 mg/kg, glibenclamide 10 mg/kg
Method: as §1, §2, §3, §4

[8] = STZ diabetic rats, glibenclamide 10 mg/kg

| SMILES | inhibition at 100 µM [1] [%] | Fasting Blood Glucose Level, Week 0 [3, 8] [mg/dL] | Fasting Blood Glucose Level, Week 1 ([3]; STZ diabetic rats) [mg/dL] | Fasting Blood Glucose Level, Week 2 ([3]; STZ diabetic rats) [mg/dL] | Fasting Blood Glucose Level, Week 3 ([3]; STZ diabetic rats) [mg/dL] | Fasting Blood Glucose Level, Week 4 ([3]; STZ diabetic rats) [mg/dL] | serum albumin level vs diabetic control [4] | serum insulin level vs diabetic control [4] | serum total protein level vs diabetic control [4] | daily food intake vs untreated diabetic rats [5] | also measured |
| --- | --- | --- | --- | --- | --- | --- | --- | --- | --- | --- | --- |
| CC(C)C(=O)O[C@H]1CC[C@@]2(C)C(CC[C@]3(C)C2CC=C2C4[C@@H](C)[C@H](C)CC[C@]4(C(=O)O)CC[C@]23C)C1(C)C (some centres unmarked) [Compound 12] | 7.67 ± 5.36 | 325.80 ± 14.58 | 392.40 ± 36.54 | 379.80 ± 30.60 | 408.60 ± 20.52 | 432.00 ± 28.26 | no appreciable improvement | non-significant effect | no appreciable improvement | no obvious decrease | effect on protein expression of SGLT-1 [2]: significantly reduce; effect on lowering fasting blood glucose levels ([3]; STZ diabetic rats, 100 mg/kg, 4 weeks): no significant effect; GSH level in kidney ([6]; kidney of STZ diabetic rats): great effect |
| COc1ccc(Cl)cc1C(=O)NCCc1ccc(S(=O)(=O)NC(=O)NC2CCCCC2)cc1 [Glibenclamide, reference compound] |  | 338.40 ± 16.38 | 271.80 ± 18.36 | 183.60 ± 11.70 | 216.00 ± 9.72 | 203.40 ± 13.50 | increased significantly | increased significantly | increased significantly | reduce daily food intake significantly | decrease in blood glucose levels as compared with diabetic control ([3]; end of the 4 week treatment, compound 10 100 mg/kg, glibenclamide 10 mg/kg): 54.4%; serum TC level vs diabetic control [7]: significantly decreased; serum TG level vs diabetic control [7]: significantly decreased; SOD level in the liver and kidney ([6]; liver and kidney of STZ diabetic rats): great improvement; GSH level in liver ([6]; liver of STZ diabetic rats): significant effects; MDA level in the liver ([6]; liver of STZ diabetic rats, daily administration): obviously down-regulated |
| CC(=O)O[C@H]1CC[C@@]2(C)C(CC[C@]3(C)C2CC=C2C4[C@@H](C)[C@H](C)CC[C@]4(C(=O)Nc4ccc(Br)cc4)CC[C@]23C)C1(C)C (some centres unmarked) [Compound 5] | 8.72 ± 1.18 |  |  |  |  |  |  |  |  |  |  |
| O=C(CCc1ccc(O)cc1)c1c(O)cc(O)cc1O [Phloretin, reference compound] | 4.7 ± 2.59 |  |  |  |  |  |  |  |  |  |  |
| CC(=O)O[C@H]1CC[C@@]2(C)C(CC[C@]3(C)C2CC=C2C4[C@@H](C)[C@H](C)CC[C@]4(C(=O)Nc4ccc(F)cc4)CC[C@]23C)C1(C)C (some centres unmarked) [Compound 3] | 8.65 ± 3.49 |  |  |  |  |  |  |  |  |  |  |
| CC(=O)O[C@H]1CC[C@@]2(C)C(CC[C@]3(C)C2CC=C2C4[C@@H](C)[C@H](C)CC[C@]4(C(=O)Nc4ccc(Cl)cc4)CC[C@]23C)C1(C)C (some centres unmarked) [Compound 4] | 8.53 ± 5.69 |  |  |  |  |  |  |  |  |  |  |

— paper PMC6270814, “Effects of Ursolic Acid Derivatives on Caco-2 Cells and Their Alleviating Role in Streptozocin-Induced Type 2 Diabetic Rats” (Molecules, 2014)
